Key:
Type in all cases: cell-based
[1] = tested on: IL-1β cytokine output from THP-1s; experiment: THP-1 AlphaLISA IL-1β cytokine assay (differentiated THP-1 cells, LPS then nigericin); details: Homo sapiens, 30 min pre-incubation, LPS 24 hr, nigericin 1 hour
Method: (§1) Measuring Inhibitory Effects on IL-1β and IL-6 Cytokine Output from THP-1s
(§2) The cytokine inhibition profiles of compounds of formula (I) were determined in a differentiated THP-1 cell assay. All assays were performed in RPMI-1640 growth medium (Gibco), supplemented with 10% fetal bovine serum (FBS; Gibco), 1% penicillin-streptomycin and 1% sodium pyruvate unless specified otherwise. The IL-1β and IL-6 cytokine inhibition assays were each run in a background of differentiated THP-1 cells as described below. All reagents described were from Sigma-Aldrich unless specified otherwise. Compounds were prepared as 10 mM DMSO stocks.
(§3) THP-1 cells were expanded as a suspension up to 80% confluence in appropriate growth medium. Cells were harvested, suspended, and treated with an appropriate concentration of phorbol 12-myristate 13-acetate (PMA) over a 72 hr period (37° C./5% CO2).
(§4) Following 72 hrs of THP-1 cell incubation, cellular medium was removed and replaced with fresh growth media containing 1% of FBS. Working concentrations of compounds were prepared separately in 10% FBS treated growth medium and pre-incubated with the cells for 30 minutes (37° C./5% CO2). Following the 30 minute compound pre-incubation, THP-1s were treated with an appropriate concentration of LPS and the THP-1s were subsequently incubated for a 24 hr period (37° C./5% CO2). An appropriate final concentration of Nigericin was then dispensed into the THP-1 plates and incubated for 1 hour (37° C./5% CO2) before THP-1 supernatants were harvested and collected in separate polypropylene 96-well holding plates.
(§5) Reagents from each of the IL-1β and IL-6 commercial kits (Perkin Elmer) were prepared and run according to the manufacturer's instructions. Subsequently, fluorescence signal detection in a microplate reader was measured (EnVision® Multilabel Reader, Perkin Elmer).
(§6) Percentage inhibition was calculated per cytokine by normalizing the sample data to the high and low controls used within each plate (+/−LPS respectively).

[2] = tested on: NRF2 (nuclear factor erythroid 2-related factor 2); experiment: NRF2 activation assay (DiscoverX PathHunter NRF2 translocation kit, U2OS cells); details: Homo sapiens; for Emax: U2OS, normalised to dimethyl fumarate high control; for EC50: U2OS PathHunter cells, 6 hours
[3] = tested on: IL-6 cytokine output from THP-1s; experiment: THP-1 AlphaLISA IL-6 cytokine assay (differentiated THP-1 cells, LPS then nigericin); details: Homo sapiens, 30 min pre-incubation, LPS 24 hr, nigericin 1 hour
Method: as §1, §2, §3, §4, §5, §6

C=C(Cc1ccccc1Cl)C(=O)O [2-(2-chlorobenzyl)acrylic acid, reference compound]
IC50 [1]: > 100 µM
Emax ([2]; +GSH): 9%
Emax ([2]; −GSH): 2%
EC50 ([2]; +GSH (30 minute compound/GSH pre-incubation)): > 100 µM
EC50 ([2]; −GSH): > 100 µM

C=C(Cc1nc(C2(c3ccc(SC(F)(F)F)cc3)CC2)no1)C(=O)Nc1ncc(C)s1 [Example 1, N-(5-methylthiazol-2-yl)-2-((3-(1-(4-((trifluoromethyl)thio)phenyl)cyclopropyl)-1,2,4-oxadiazol-5-yl)methyl)acrylamide]
IC50 [1]: 1 µM
IC50 [3]: 0.9 µM

C=C(Cc1nc(Cc2ccc(CCCC)cc2)no1)C(=O)Nc1ccccn1 [Example 3, 2-((3-(4-butylbenzyl)-1,2,4-oxadiazol-5-yl)methyl)-N-(pyridin-2-yl)acrylamide]
IC50 [1]: 4.5 µM

C=C(Cc1nc(Cc2ccc(CCCC)cc2)no1)C(=O)Nc1cnccn1 [Example 4, 2-((3-(4-butylbenzyl)-1,2,4-oxadiazol-5-yl)methyl)-N-(pyrazin-2-yl)acrylamide]
IC50 [1]: 1.1 µM

C=C(Cc1nc(Cc2ccc(CCCC)cc2)no1)C(=O)Nc1ncc(C)s1 [Example 5, 2-((3-(4-butylbenzyl)-1,2,4-oxadiazol-5-yl)methyl)-N-(5-methylthiazol-2-yl)acrylamide]
IC50 [1]: 1.9 µM

C=C(CC(=O)OC(C)(C)CCCCCC)C(=O)Nc1cnccn1 [Example 6, 2-methyloctan-2-yl 3-(pyrazin-2-ylcarbamoyl)but-3-enoate]
IC50 [1]: 3.8 µM
IC50 [3]: 2.1 µM

C=C(CC(=O)O[C@@H](C)c1ccc(C(F)(F)F)cc1)C(=O)NC [Example 10, (S)-1-(4-(trifluoromethyl)phenyl)ethyl 3-(methylcarbamoyl)but-3-enoate]
IC50 [1]: 10.5 µM
IC50 [3]: 3.5 µM

C=C(CC(=O)O[C@H](C)c1ccc(C(F)(F)F)cc1)C(=O)NC [Example 11, (R)-1-(4-(trifluoromethyl)phenyl)ethyl 3-(methylcarbamoyl)but-3-enoate]
IC50 [1]: 3.3 µM
IC50 [3]: 1.9 µM

C=C(CC(=O)O[C@H](C)c1ccc(C(F)(F)F)cc1)C(N)=O [Example 12, (R)-1-(4-(trifluoromethyl)phenyl)ethyl 3-carbamoylbut-3-enoate]
IC50 [1]: 20 µM
IC50 [3]: 14.4 µM

C=C(CC(=O)OC1(c2ccc(C(F)(F)F)cc2)COC1)C(=O)NC [Example 13, 3-(4-(trifluoromethyl)phenyl)oxetan-3-yl 3-(methylcarbamoyl)but-3-enoate]
IC50 [1]: 17.5 µM
IC50 [3]: 2.6 µM

C=C(CC(=O)OC1(c2ccc(C(F)(F)F)cc2)COC1)C(N)=O [Example 14, 3-(4-(trifluoromethyl)phenyl)oxetan-3-yl 3-carbamoylbut-3-enoate]
IC50 [1]: 6.5 µM
IC50 [3]: 4.4 µM

C=C(CC(=O)OC1(c2ccc(C(F)(F)F)cn2)COC1)C(=O)NC [Example 15, 3-(5-(trifluoromethyl)pyridin-2-yl)oxetan-3-yl 3-(methylcarbamoyl)but-3-enoate]
IC50 [1]: 13.1 µM
IC50 [3]: 10.9 µM

C=C(CC(=O)OC1(c2ccc(C(F)(F)F)cn2)COC1)C(N)=O [Example 16, 3-(5-(trifluoromethyl)pyridin-2-yl)oxetan-3-yl 3-carbamoylbut-3-enoate]
IC50 [1]: 8.6 µM
IC50 [3]: 4.6 µM

C=C(CC(=O)OC1(c2ccc(C(F)(F)F)cn2)CCC1)C(=O)NC [Example 17, 1-(5-(trifluoromethyl)pyridin-2-yl)cyclobutyl 3-(methylcarbamoyl)but-3-enoate]
IC50 [1]: 14.4 µM
IC50 [3]: 4.8 µM

C=C(CC(=O)OC1(c2ccc(C(F)(F)F)cn2)CCC1)C(N)=O [Example 18, 1-(5-(trifluoromethyl)pyridin-2-yl)cyclobutyl 3-carbamoylbut-3-enoate]
IC50 [1]: 9.3 µM
IC50 [3]: 14.4 µM

C=C(CC(=O)OC1(c2cc(Cl)cc(Cl)c2)CCC1)C(=O)NC [Example 19, 1-(3,5-dichlorophenyl)cyclobutyl 3-(methylcarbamoyl)but-3-enoate]
IC50 [1]: 17.5 µM
IC50 [3]: 3.3 µM

Source: patent publication US20240335451A1, “ACRYLAMIDE DERIVATIVES USEFUL AS ANTI-INFLAMMATORY AGENTS” (Sitryx Therapeutics Limited, priority 2021, published 2024)
